# Data published in patent publication US20060073504A1, “Treatment of pain by inhibition of caspase signaling” (The Regents of the University of California, priority 2004, published 2006).
# “Also recorded” adds a separate entry of the source. Structures can show the parent of a compound that is named as a salt. Where two headings read alike, the source gives them in different places. * marks the point of attachment. Cbz = O=C(OCc1ccccc1)*; CH2F = FC*
# Legend:
# [1] = test system: mechanical hyperalgesia induced by vincristine (VCR); test: Vincristine-induced mechanical hyperalgesia, paw-withdrawal threshold; format: in vivo, rat; settings: inhibitor 5 μg i.d. hind paw, day 5 after VCR 200 μg/kg i.v., read 30 min after inhibitor, p<0.05
# Description: (§1) Experiments were performed on 220-260-g male Sprague-Dawley rats (Charles River, Fremont, Calif., USA). Rats were housed in groups of 2 under a 12-h light-dark cycle. Food and water were available ad libitum. Experiments were carried out in accordance with NIH regulations for the care and use of animals in research, and under approval of the Institutional Animal Care and Use Committee of the University of California, San Francisco.
# (§2) The nociceptive mechanical flexion reflex was quantified with an Ugo Basile Analgesymeter® (Stoelting, Chicago, Ill.), which applies a linearly increasing mechanical force to the dorsum of the rat's hind paw. Mechanical paw-withdrawal thresholds were determined in control (saline treated) and test agent treated rats. Four readings were taken at 5-min intervals and the mean of the last three readings were used to define the baseline paw-withdrawal threshold (Aley and Levine, 1999; Aley et al., 2001). The time at which the readings were taken was based on the time course of each test agent (described in results).
# (§3) Algesic agents employed in this study were: vincristine sulfate (VCR), 2′,3′-dideoxycytidine (ddC), streptozotocin sulfate (STZ), tumor necrosis factor-α (TNFα) prostaglandin E2 (PGE2), epinephrine (Epi) (Sigma, St. Louis, Mo.) and N-Acetyl Sphingosine (C2-Ceramide obtained from Upstate USA, Inc, Lake Placid, N.Y.). Doses of the algesic agents were, VCR (200 μg/kg), ddC (50 mg/kg), STZ (50 mg/kg), PGE2 (100 ng/paw) and Epi (100 ng/paw). A single i.v. injection of VCR (200 μg/kg) produced significant mechanical hyperalgesia (>30 % reduction in paw-withdrawal threshold). This effect reached maximum on day 5 following the drug administration and was persistent for more then 15 days (Joseph, 2003 #5). STZ (50 mg/kg, i.v.×1), induced diabetes in rats, as indicated by with a blood glucose level >300 mg/dL, and a nociceptive threshold reduction (>30%). This effect reached maximum on day 3 following administration of the neuropathy inducing drug and was persistent for over 15 days (Joseph, 2003 #4).
# (§4) TNFα, C2-Ceramide, PGE2, Epi, and all the inhibitors (see Table I) were administered intradermally (i.d.) on the dorsal surface of the hind paw in a volume of 2.5-5.0 μl, via a 30-gauge hypodermic needle. In co-injection experiments, agents were separated by very small air pockets, in one syringe, so that they could be administered with a single cutaneous needle penetration. As a control, all inhibitors were studied for independent effects on baseline nociceptive threshold. Inhibitors were either co-injected (with TNFα, C2-Ceramide, PGE2, and Epi) or administered on day five following the administration of VCR, ddC and STZ. Drugs were either dissolved in saline (VCR, ddC, STZ, TNF-α, PGE2, Epi) or in 10% DMSO (C2-Ceramide and inhibitors).
# (§5) Group data are presented as % reduction in nociceptive threshold (mean+/±SEM) and comparisons between groups performed using Student's t-test (paired or unpaired, as appropriate). A probability of p<0.05 was considered statistically significant.
# FIG. 2 depicts the effect of inhibitors of caspases, administered in the hind paw of the rat, on mechanical hyperalgesia induced by the cancer chemotherapy drug Vincristine (VCR). The effect of inhibitors of caspase 1, 2, 3, 8, 9, the non-selective broad-spectrum caspase inhibitor (NS) and the negative control for the non-selective broad-spectrum caspase inhibitor [NS (Con)] on the nociceptive paw-withdrawal thresholds were evaluated. Paw-withdrawal thresholds were measured on the 5th day after injection of VCR and 30 min after the administration of the inhibitors. N=8/group, *=p<0.05, with respect to the value prior to injection of the inhibitor.
# [2] = test system: mechanical hyperalgesia induced by 2′,3′-dideoxycytidine (ddC); test: ddC-induced mechanical hyperalgesia, paw-withdrawal threshold (Ugo Basile Analgesymeter); format: in vivo, rat; settings: inhibitor 5 μg i.d. hind paw, day 5 after ddC 50 mg/kg i.v., read 30 min after inhibitor, p<0.05
# Description: as §1, §2, §3, §4, §5
# FIG. 1 depicts the effect of inhibitors of caspases administered in the hind paw of the rat, on mechanical hyperalgesia induced by the AIDS therapy drug 2′,3′-dideoxycytidine (ddC). The effect of inhibitors of caspase 1 (BACMK), 2 (Z-VDAD-FMK), 3 (Ac-DMQD-CHO), 8 (IETD-CHO), 9 (Z-LEHD-FMK.TFA), the non-selective broad-spectrum caspase inhibitor (NS) Z-VAD-FMK and the negative control for the non-selective broad-spectrum caspase inhibitor Z-FA-FMK [NS (Con)] on the nociceptive paw-withdrawal thresholds of rats were evaluated. Paw-withdrawal thresholds were measured on the 5th day after injection of ddC and 30 min after the administration of inhibitors. N=8/group, *=p<0.05, with respect to mechanical nociceptive threshold prior to injection of the inhibitor.
# [3] = test system: mechanical nociceptive threshold; test: Effect of algesic agents on mechanical nociceptive (paw-withdrawal) threshold; format: in vivo, rat; settings: for effect on mechanical nociceptive threshold, dose response: intradermal injection, TNFα 1 ng-1 μg, C2-ceramide 1 μg-20 μg; for reduction in nociceptive threshold: 100 ng/paw i.d.
# Description: as §1, §2
# (§6) Algesic agents employed in this study were: vincristine sulfate (VCR), 2′,3′-dideoxycytidine (ddC), streptozotocin sulfate (STZ), tumor necrosis factor-α (TNFα) prostaglandin E2 (PGE2), epinephrine (Epi) (Sigma, St. Louis, Mo.) and N-Acetyl Sphingosine (C2-Ceramide obtained from Upstate USA, Inc, Lake Placid, N.Y.). Doses of the algesic agents were, VCR (200 μg/kg), ddC (50 mg/kg), STZ (50 mg/kg), PGE2 (100 ng/paw) and Epi (100 ng/paw).
# (§7) Inhibitors of caspases and neutral sphingomyelinase are described in Table I, which is repeated for convenience. The doses of TNFα (100 ng) and C2-Ceramide (10 μg) were based on dose response experiments performed as part of this study. VCR, STZ, and ddC were administered intravenously (i.v.) in a volume of 1 ml/kg, followed by 0.5 ml saline. Control rats received equal volume of saline.
# as §4
# FIG. 3 depicts: A. Dose response (1 ng-1 μg) curve for the effect of TNF-α on mechanical nociceptive threshold, and B. Onset and time course of mechanical hyperalgesia induced by 100 ng of TNF-α. N=6/group.
# FIG. 5 depicts the dose response (1-20 μg) curve for the effect of ceramide on the mechanical nociceptive threshold. N=6/group.
# [4] = test system: mechanical nociceptive threshold; settings: cited from earlier work
# [5] = test system: mechanical hyperalgesia induced by TNF-α; test: TNFα-induced mechanical hyperalgesia, inhibitors co-injected; format: in vivo, rat; settings: read at 30 min
# Description: as §1, §2
# as §7, with “of saline. […]” for “of saline.”
# FIG. 4 depicts the effect of inhibitors of caspases and sphingomyelinase on mechanical hyperalgesia induced by tumor necrosis factor alpha (TNF-α). The effect of inhibitors of caspase 1, 2, 3, 8, 9, the non-selective broad-spectrum caspase inhibitor (NS), the negative control for the non-selective broad-spectrum caspase inhibitor [NS (Con)], and the neutral sphingomyelinase inhibitor (GW4869) on the nociceptive paw-withdrawal thresholds of rats was evaluated. The inhibitors were co-injected with TNF-α and the paw-withdrawal thresholds measured 30 min after the drug administration. […]
# [6] = STZ 50 mg/kg i.v. ×1; cited from earlier work
# [7] = test system: mechanical hyperalgesia induced by ceramide; test: C2-ceramide-induced mechanical hyperalgesia, inhibitors co-injected; format: in vivo, rat; settings: inhibitor 5 μg co-injected i.d. with C2-ceramide 10 μg, read at 1 hr; p<0.05
# Description: as §1, §2
# Inhibitors of caspases and neutral sphingomyelinase are described in Table I, which is repeated for convenience. […]
# FIG. 6 depicts the effect of inhibitors of caspases on mechanical hyperalgesia induced by ceramide. […] The inhibitors were co-injected with ceramide and paw-withdrawal thresholds measured 1 hr after the drug administration. […]
# [8] = test system: prostaglandin E2 (PGE2)-induced hyperalgesia; test: PGE2-induced mechanical hyperalgesia, inhibitor co-injected; format: in vivo, rat; settings: co-injected with PGE2 100 ng/paw, read at 30 min
# Description: as §1
# as §2, with “results). […]” for “results).”
# (§8) FIG. 7 depicts the effect of the non-selective caspase inhibitor on prostaglandin E2 (PGE2), epinephrine (Epi)-induced hyperalgesia. The caspase inhibitor was co-injected with PGE2 and epinephrine and the paw-withdrawal thresholds measured 30 min after the drug administration. […]
# [9] = test system: mechanical nociceptive threshold of normal/control rats; test: Independent effect of inhibitors on baseline mechanical nociceptive threshold in control rats; format: in vivo, rat; settings: i.d. hind paw, data not shown
# Description: as §1, §2
# TNFα, C2-Ceramide, PGE2, Epi, and all the inhibitors (see Table I) were administered intradermally (i.d.) on the dorsal surface of the hind paw in a volume of 2.5-5.0 μl, via a 30-gauge hypodermic needle. […]
# [10] = test system: epinephrine (Epi)-induced hyperalgesia; test: Epinephrine-induced mechanical hyperalgesia, inhibitor co-injected; format: in vivo, rat; settings: co-injected with Epi 100 ng/paw, read at 30 min
# Description: as §1
# as §2, with “results). […]” for “results).”
# as §8
# [11] = test system: STZ-induced mechanical hyperalgesia; test: STZ (diabetes)-induced mechanical hyperalgesia, paw-withdrawal threshold; format: in vivo, rat; settings: single test dose 5 μg i.d. hind paw, rats treated with STZ 50 mg/kg i.v.
# Description: as §1, §2
# as §6, with “Doses of the algesic agents were, VCR (200 μg/kg), ddC (50 mg/kg), STZ (50 mg/kg), PGE2 (100 ng/paw) and Epi (100 ng/paw).” left out
# [12] = listed as inhibitor of caspase 3
# [13] = single i.v. injection: VCR 200 μg/kg, STZ 50 mg/kg
# [14] = inhibitor 5 μg co-injected i.d. with TNFα 100 ng, p<0.05
compound,measurement,setting,value
"CC(C)(C)OC(=O)N[C@@H](CC(=O)OCc1ccccc1)C(=O)CCl [BACMK, Boc-Asp(Obzl)-CMK]",effect on vincristine-induced mechanical hyperalgesia,[1],significantly attenuated hyperalgesia
same,effect on ddC-induced mechanical hyperalgesia,[2],significantly attenuated hyperalgesia
TNFα,latency to onset of hyperalgesia,[3]; TNFα 100 ng i.d.,approximately 5 minutes
same,time course of hyperalgesia,"[3]; TNFα 100 ng i.d., at 3 hours",not attenuated at 3 hours
same,"effect on mechanical nociceptive threshold, dose response",[3],dose-dependent (1 ng-1 μg) decrease in mechanical nociceptive threshold
Ac-Asp-Met-Gin-Asp-CHO [Ac-DMQD-CHO],effect on vincristine-induced mechanical hyperalgesia,[1]; [12],significantly reversed mechanical hyperalgesia; also recorded: only moderately attenuated
same,effect on ddC-induced mechanical hyperalgesia,[2]; [12],significantly reversed mechanical hyperalgesia; also recorded: markedly attenuating ddC hyperalgesia
"CCCCCCCCCCCCC/C=C/[C@@H](O)[C@H](CO)NC(C)=O [C2-ceramide, N-Acetyl Sphingosine]","effect on mechanical nociceptive threshold, dose response",[3],dose-dependent hyperalgesia
Cbz-VD(OMe)VAD(OMe)-CH2F [Z-VDAD-FMK],effect on vincristine-induced mechanical hyperalgesia,[1],significantly attenuated hyperalgesia
same,effect on ddC-induced mechanical hyperalgesia,[2],significantly attenuated hyperalgesia
"Nc1ccn([C@H]2CC[C@@H](CO)O2)c(=O)n1 [ddC, 2′,3′-dideoxycytidine]",reduction in nociceptive threshold,"[4]; single dose ddC 50 mg/kg i.v., from day 1",significant reduction in nociceptive threshold
same,persistence of hyperalgesia,"[4]; single i.v. injection: VCR 200 μg/kg, STZ 50 mg/kg, ddC 50 mg/kg",over 20 days
"CNC[C@H](O)c1ccc(O)c(O)c1 [Epi, epinephrine]",reduction in nociceptive threshold,[3],significant reduction in nociceptive threshold
Z-Leu-Glu(OMe)-His-Asp-(OMe)FMK [Z-LEHD-FMK.TFA],effect on vincristine-induced mechanical hyperalgesia,[1],significantly attenuated hyperalgesia
same,effect on ddC-induced mechanical hyperalgesia,[2],significantly attenuated hyperalgesia
O=C(/C=C/c1ccc(/C=C/C(=O)Nc2ccc(C3=NCCN3)cc2)cc1)Nc1ccc(C2=NCCN2)cc1 [GW4869],effect on TNFα-induced hyperalgesia,[5]; sphingomyelinase inhibitor 1 μg co-injected i.d. with TNFα 100 ng,markedly attenuated
"CN(N=O)C(=O)N[C@@H]1[C@@H](O)[C@H](O)[C@@H](CO)O[C@@H]1O [STZ, streptozotocin sulfate]",day of maximum hyperalgesic effect after drug administration,[4]; [13],3 days
same,blood glucose level,[6],> 300 mg/dL
"CC[C@]1(O)C[C@H]2CN(CCc3c([nH]c4ccccc34)[C@@](C(=O)OC)(c3cc4c(cc3OC)N(C=O)[C@H]3[C@@](O)(C(=O)OC)[C@H](OC(C)=O)[C@]5(CC)C=CCN6CC[C@]43[C@@H]65)C2)C1 [VCR, vincristine sulfate]",day of maximum hyperalgesic effect after drug administration,[4]; [13],5 days
Z-Phe-Ala-CH2F [Z-FA-FMK],effect on C2-ceramide-induced hyperalgesia,[7],not
same,effect on TNFα-induced hyperalgesia,[5]; [14],not
IETD-CHO,effect on vincristine-induced mechanical hyperalgesia,[1],significantly attenuated hyperalgesia
same,effect on ddC-induced mechanical hyperalgesia,[2],significantly attenuated hyperalgesia
Z-Val-Ala-Asp(OMe)-Fluoro methyl ester [Z-VAD-FMK],effect on vincristine-induced mechanical hyperalgesia,[1],markedly attenuated; also recorded: moderately attenuating pain
same,effect on PGE2-induced hyperalgesia,[8],had no effect on the hyperalgesia
same,effect on C2-ceramide-induced hyperalgesia,[7],significantly less hyperalgesia
same,effect of inhibitor alone on mechanical nociceptive threshold,[9],had no effect on mechanical nociceptive threshold
same,effect on TNFα-induced hyperalgesia,[5]; [14],markedly attenuated
same,effect on Epi-induced hyperalgesia,[10],had no effect on the hyperalgesia
same,effect on ddC-induced mechanical hyperalgesia,[2],markedly attenuated; also recorded: markedly attenuating pain-related behavior
same,effect on STZ-induced mechanical hyperalgesia,[11],did not produce significant attenuation of hyperalgesia; also recorded: having no effect
"CCCCC[C@H](O)/C=C/[C@H]1[C@H](O)CC(=O)[C@@H]1C/C=C\CCCC(=O)O [PGE2, prostaglandin E2]",reduction in nociceptive threshold,[3],significant reduction in nociceptive threshold
